Data as given in ChEMBL document CHEMBL2417435, “The discovery of potent blockers of the canonical transient receptor channels, TRPC3 and TRPC6, based on an anilino-thiazole pharmacophore” (Bioorg Med Chem Lett, 2013).
The source made the active and inactive calls. No cut-off for these calls is given here.

Tests used:
[1] = target: T1, Short transient receptor potential channel 6 (Homo sapiens, UniProt Q9Y210); assay: Inhibition of human recombinant TRPC6 expressed in HEK293-MSRII cells assessed as carbachol-stimulated Ca2+/Na+ influx after 10 mins by FLIPR assay; format: cell-based
T1 sequence (Q9Y210 whole entry): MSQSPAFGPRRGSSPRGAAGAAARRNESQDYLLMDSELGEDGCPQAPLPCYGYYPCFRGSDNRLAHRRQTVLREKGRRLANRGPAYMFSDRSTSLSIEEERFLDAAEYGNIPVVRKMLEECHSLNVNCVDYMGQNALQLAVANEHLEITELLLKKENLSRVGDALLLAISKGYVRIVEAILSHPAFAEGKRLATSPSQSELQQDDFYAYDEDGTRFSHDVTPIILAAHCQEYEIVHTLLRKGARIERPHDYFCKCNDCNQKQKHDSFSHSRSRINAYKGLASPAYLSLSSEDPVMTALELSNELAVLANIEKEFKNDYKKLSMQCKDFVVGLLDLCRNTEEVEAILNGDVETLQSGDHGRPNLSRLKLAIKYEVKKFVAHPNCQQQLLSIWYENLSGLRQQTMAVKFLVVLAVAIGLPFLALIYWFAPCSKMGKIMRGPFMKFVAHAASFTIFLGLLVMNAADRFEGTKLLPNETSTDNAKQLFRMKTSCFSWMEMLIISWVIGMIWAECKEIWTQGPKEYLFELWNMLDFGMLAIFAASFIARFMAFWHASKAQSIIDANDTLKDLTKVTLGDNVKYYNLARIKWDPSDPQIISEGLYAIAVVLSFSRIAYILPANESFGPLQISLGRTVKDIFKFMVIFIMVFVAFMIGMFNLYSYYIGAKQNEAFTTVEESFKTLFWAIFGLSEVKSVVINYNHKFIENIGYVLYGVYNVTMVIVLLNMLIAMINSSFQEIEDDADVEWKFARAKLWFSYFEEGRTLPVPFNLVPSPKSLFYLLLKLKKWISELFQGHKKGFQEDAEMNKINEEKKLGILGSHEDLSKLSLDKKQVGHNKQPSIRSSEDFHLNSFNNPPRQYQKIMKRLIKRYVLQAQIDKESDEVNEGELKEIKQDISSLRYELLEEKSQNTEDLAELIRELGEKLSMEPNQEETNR

[2] = target: T2, Short transient receptor potential channel 3 (Homo sapiens, UniProt Q13507); assay: Inhibition of human recombinant TRPC3 expressed in HEK293-MSRII cells assessed as carbachol-stimulated Ca2+/Na+ influx after 10 mins by FLIPR assay; format: cell-based
T2 sequence (Q13507 whole entry): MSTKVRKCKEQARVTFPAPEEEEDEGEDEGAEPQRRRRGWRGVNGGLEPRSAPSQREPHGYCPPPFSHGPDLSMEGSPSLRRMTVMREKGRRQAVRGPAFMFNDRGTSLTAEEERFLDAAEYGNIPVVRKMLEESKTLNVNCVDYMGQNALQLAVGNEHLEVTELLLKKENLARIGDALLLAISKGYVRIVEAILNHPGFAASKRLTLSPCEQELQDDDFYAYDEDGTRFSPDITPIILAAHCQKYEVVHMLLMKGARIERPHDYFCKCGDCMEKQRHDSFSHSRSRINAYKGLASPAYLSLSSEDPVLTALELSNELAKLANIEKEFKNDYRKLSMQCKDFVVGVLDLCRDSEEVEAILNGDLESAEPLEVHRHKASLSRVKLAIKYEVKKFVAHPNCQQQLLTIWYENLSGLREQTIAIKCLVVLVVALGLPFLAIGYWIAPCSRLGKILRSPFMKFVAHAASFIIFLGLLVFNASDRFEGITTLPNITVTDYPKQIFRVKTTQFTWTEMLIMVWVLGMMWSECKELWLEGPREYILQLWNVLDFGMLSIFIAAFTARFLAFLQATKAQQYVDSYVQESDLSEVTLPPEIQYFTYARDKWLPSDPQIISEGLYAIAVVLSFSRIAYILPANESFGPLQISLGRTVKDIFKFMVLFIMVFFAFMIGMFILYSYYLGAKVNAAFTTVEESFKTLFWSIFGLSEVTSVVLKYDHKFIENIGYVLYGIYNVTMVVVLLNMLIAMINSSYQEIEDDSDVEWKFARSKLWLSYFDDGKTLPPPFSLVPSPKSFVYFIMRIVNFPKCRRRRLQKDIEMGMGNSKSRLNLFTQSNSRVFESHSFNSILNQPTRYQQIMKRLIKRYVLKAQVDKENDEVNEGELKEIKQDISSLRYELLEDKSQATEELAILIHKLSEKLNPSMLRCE

[3] = Volume of distribution at steady state in rat at 1.06 mg/kg, iv; format: ADME, organism-based; design: dose 1.06 mg/kg, route intravenous; details: in vivo, read-out: Vdss
[4] = Oral bioavailability in rat at 1.06 mg/kg; format: ADME, organism-based; details: in vivo
Rattus norvegicus [5] = assay: Dose normalized AUC in rat at 1.06 mg/kg, iv; format: ADME, organism-based; design: dose 1.06 mg/kg, route intravenous; details: in vivo
[6] = Mean residence time in rat at 1.06 mg/kg, iv; format: ADME, organism-based; design: dose 1.06 mg/kg, route intravenous; details: in vivo
[7] = Cmax in rat at 1.06 mg/kg, iv; format: ADME, organism-based; design: dose 1.06 mg/kg, route intravenous; details: in vivo
[8] = Clearance in rat at 1.06 mg/kg, iv; format: ADME, organism-based; design: dose 1.06 mg/kg, route intravenous; details: in vivo
[9] = Oral bioavailability in rat at 0.86 mg/kg; format: ADME, organism-based; details: in vivo
[10] = Mean residence time in rat at 0.86 mg/kg, iv; format: ADME, organism-based; design: dose 0.86 mg/kg, route intravenous; details: in vivo
Rattus norvegicus [11] = assay: Dose normalized AUC in rat at 0.86 mg/kg, iv; format: ADME, organism-based; design: dose 0.86 mg/kg, route intravenous; details: in vivo
[12] = Cmax in rat at 0.86 mg/kg, iv; format: ADME, organism-based; design: dose 0.86 mg/kg, route intravenous; details: in vivo
[13] = Clearance in rat at 0.86 mg/kg, iv; format: ADME, organism-based; design: dose 0.86 mg/kg, route intravenous; details: in vivo
Rattus norvegicus [14] = assay: Dose normalized AUC in rat at 1.05 mg/kg, iv; format: ADME, organism-based; design: dose 1.05 mg/kg, route intravenous; details: in vivo
[15] = Oral bioavailability in rat at 1.05 mg/kg; format: ADME, organism-based; details: in vivo
[16] = Clearance in rat at 1.05 mg/kg, iv; format: ADME, organism-based; design: dose 1.05 mg/kg, route intravenous; details: in vivo
[17] = Mean residence time in rat at 1.05 mg/kg, iv; format: ADME, organism-based; design: dose 1.05 mg/kg, route intravenous; details: in vivo
[18] = Cmax in rat at 1.05 mg/kg, iv; format: ADME, organism-based; design: dose 1.05 mg/kg, route intravenous; details: in vivo
[19] = target: T3, Short transient receptor potential channel 6 (Homo sapiens) (UniProt Q9Y210); assay: Inhibition of human recombinant TRPC6 expressed in HEK293 cells assessed as 1-oleoyl-2-acetyl-glycerol-stimulated current at 0.01 to 0.03 uM by whole cell electrophysiology assay; format: cell-based
T3 sequence (whole entry): T1 sequence (Q9Y210 whole entry)

[20] = target: T4, Short transient receptor potential channel 3 (Homo sapiens) (UniProt Q13507); assay: Inhibition of human recombinant TRPC3 expressed in HEK293 cells assessed as 1-oleoyl-2-acetyl-glycerol-stimulated current at 0.01 to 0.03 uM by whole cell electrophysiology assay; format: cell-based
T4 sequence (whole entry): T2 sequence (Q13507 whole entry)

Rattus norvegicus [21] = assay: Volume of distribution at steady state in rat at 0.93 mg/kg, iv; format: ADME, organism-based; design: dose 0.93 mg/kg, route intravenous; details: in vivo
[22] = Oral bioavailability in rat at 0.93 mg/kg; format: ADME, organism-based; details: in vivo
Rattus norvegicus [23] = assay: Dose normalized AUC in rat at 0.93 mg/kg, iv; format: ADME, organism-based; design: dose 0.93 mg/kg, route intravenous; details: in vivo
Rattus norvegicus [24] = assay: Mean residence time in rat at 0.93 mg/kg, iv; format: ADME, organism-based; design: dose 0.93 mg/kg, route intravenous; details: in vivo
[25] = Cmax in rat at 0.93 mg/kg, iv; format: ADME, organism-based; design: dose 0.93 mg/kg, route intravenous; details: in vivo

Compound	IC50 [1] [nM]	IC50 [2] [nM]	further results
Cc1ccc(Nc2nc(C(=O)N3CCC(C)CC3)cs2)cc1	400	630	
Cc1sc(Nc2ccc3c(c2)OCO3)nc1C(=O)N1CCc2ncccc2C1C (configuration not stated)	1260	10000	Vd [3]: 0.7 L/kg; bioavailability [4]: 65%; AUC/dose (Rattus norvegicus [5]): 1.86 kg·h/L; MRT [6]: 1.3 h; Cmax [7]: 1800 ng/mL; clearance [8]: 9.3 mL/min/kg
COc1ccc(Nc2nc(C(=O)N3CCC(C)CC3)cs2)cc1	800	800	
CC1CCCN(C(=O)c2nc(Nc3cc4c(cc3F)OCO4)sc2Cl)C1C (configuration not stated)	4	32	bioavailability [9]: 7%; MRT [10]: 0.4 h; AUC/dose (Rattus norvegicus [11]): 0.3 kg·L·h; Cmax [12]: 490 ng/mL; clearance [13]: 46 mL/min/kg
Cc1sc(Nc2cc3c(cc2F)OCO3)nc1C(=O)N1CCCC(C)C1C (configuration not stated)	25	160	
CC1c2ccccc2CCN1C(=O)c1csc(Nc2ccc3c(c2)OCO3)n1 (configuration not stated)	63	316	
CC1CCN(C(=O)c2csc(Nc3ccc(Cl)cc3F)n2)CC1	630	1600	
Cc1sc(Nc2ccc(Cl)cc2F)nc1C(=O)N1CCCC(C)C1C (racemic)	50	250	
CC1CCCN(C(=O)c2csc(Nc3ccc4c(c3)OCO4)n2)C1C (configuration not stated)	16	80	AUC/dose (Rattus norvegicus [14]): 0.2 kg·L·h; bioavailability [15]: < 1%; clearance [16]: 86 mL/min/kg; MRT [17]: 2.1 h; Cmax [18]: 340 ng/mL
Cc1sc(Nc2ccc3c(c2)OCO3)nc1C(=O)N1CCc2ccccc2C1C (configuration not stated)	32	316	
CC1CCN(C(=O)c2csc(Nc3ccc(Cl)cc3)n2)CC1	800	800	inhibition [19]: Active; inhibition [20]: Active
COc1ccc(Nc2nc(C(=O)N3CCc4ccccc4C3)cs2)cc1	500	1260	Vdss (Rattus norvegicus [21]): 0.7 L/kg; bioavailability [22]: 1%; AUC/dose (Rattus norvegicus [23]): 0.14 kg·h/L; MRT (Rattus norvegicus [24]): 0.3 h; Cmax [25]: 250 ng/mL
